Experimental findings from PubChem BioAssay AID1996 are described below.

The structures appear in SMILES notation. In brackets after ≈: the same amount, converted by molar mass.

For the data set the following is noted: buffer; pH 7.4; 200.0 µM.
As usually defined, the solubility (kinetic) is solubility judged after dilution from a stock solution rather than from solid. The molecule `CC12CCC(C(=O)Nc3ccncc3)(CC1O)C2(C)C` (centres undefined) returned a kinetic solubility greater than 41.2 µg/mL. The figure for `CC(=O)N(C(C)=O)c1c(N2CCCC2)c2ccccc2oc1=O` is 46.1 µg/mL (≈ 147 µM); for `CC(NC(=O)Cc1ccsc1)c1ccc(F)cc1` (centres undefined) it is greater than 39.5 µg/mL; for `O=C(/C=C/c1ccccc1)Oc1cccc2cccnc12` it is 20.2 µg/mL (≈ 73.4 µM).

The molecule `CCSc1nc2sccc2c(=O)n1-c1ccccc1` registered a kinetic solubility of 27.3 µg/mL (≈ 94.7 µM). With `CC(=O)NCCc1c(C)n(Cc2ccccc2)c2ccccc12`, the kinetic solubility is greater than 46 µg/mL. As for `NC(=O)C1CCN(C(=O)COc2ccc3c(c2)oc(=O)c2ccccc23)CC1`, the kinetic solubility amounted to 10.8 µg/mL (≈ 28.4 µM). `Cc1ccc(OCC(O)CNC(C)c2ccccc2)cc1C.Cl` (centres undefined) returned a solubility (kinetic) of 45.9 µg/mL. This solubility kinetic lies about 4.2-fold higher than the previous one.

As for `CC(NC(=O)c1cccs1)c1ccc(Br)cc1` (centres undefined), the solubility (kinetic) is 3.8 µg/mL (≈ 12.2 µM). The figure for `Cc1ccc(C(=O)OCC(=O)NC(C)c2ccccc2)s1` (centres undefined) is 16.1 µg/mL (≈ 53.1 µM); for `O=C(CN1C(=O)NC2(CCCCCCC2)C1=O)Nc1ccc(OC(F)F)cc1` it is 20.8 µg/mL (≈ 52.6 µM). As to `COc1ccc(CCNc2nc(C)cc(C)c2C#N)cc1OC`, the solubility (kinetic) turned out to be 32.7 µg/mL (≈ 105 µM).

`CC(C)(C)C(O)CN1CCCC1.Cl` (centres undefined) displayed a kinetic solubility greater than 31.2 µg/mL. On to `CC1CCCC(C)N1C(=O)COC(=O)c1cccnc1Cl` (centres undefined), for which the solubility (kinetic) is greater than 46.6 µg/mL. The figure for `COc1cc(CN2CCCCCC2)c([N+](=O)[O-])cc1OC` is 34.8 µg/mL (≈ 118 µM); for `Cc1cccc(NC(=O)C2COc3ccccc3O2)c1` (centres undefined) it is 7.8 µg/mL (≈ 29 µM); for `COc1ccccc1C1CCN(C(=O)c2cccc([N+](=O)[O-])c2)CC1` it is 39.5 µg/mL (≈ 116 µM). The figure for `COc1ccc2oc(C(=O)NC(C)(C)C)c(C)c2c1` is 1.8 µg/mL (≈ 6.89 µM).

For `Nc1cccc(C(=O)O)c1`, the solubility (kinetic) is greater than 20.6 µg/mL. The figure for `CN(C)S(=O)(=O)c1ccc(C(=O)Nc2ccc3nc(N4CCOCC4)sc3c2)cc1` is 4.1 µg/mL (≈ 9.18 µM).

As to `COC(=O)c1sccc1NC(=O)CC1NCCNC1=O` (centres undefined), the solubility (kinetic) worked out at 42.1 µg/mL (≈ 142 µM). The molecule `O=C(O)c1ccc(/C=N/NC(=S)NCCN2CCOCC2)cc1` registered a solubility (kinetic) greater than 50.5 µg/mL.

For `Cc1cccc(C(=O)NCCCNC(=O)c2ccco2)c1`, the solubility (kinetic) was greater than 42.9 µg/mL. The figure for `Cn1c(CC(=O)NNC(=O)c2cccnc2)nc2ccccc21` is greater than 46.4 µg/mL.

The molecule `NC(=O)CCC1NC(=S)N(Cc2ccccc2)C1=O` (centres undefined) registered a solubility (kinetic) of 32.6 µg/mL (≈ 118 µM). In turn, `CC(C)CC(=O)Nc1ccc(C(=O)CN2CCC(C)CC2)cc1` showed a kinetic solubility of 39.4 µg/mL (≈ 125 µM). The figure for `Cc1ccc(S(=O)(=O)NC(C)C(=O)Nc2cccc([N+](=O)[O-])c2)cc1` (centres undefined) is 8.9 µg/mL (≈ 24.5 µM); for `CCCOc1ccc(Cn2c(=O)oc3ccc(C)cc32)cc1` it is less than 0.6 µg/mL; for `COc1ccc(C2CC3(O)CC(C#N)(C(=O)N3)C2(C#N)C#N)cc1` (centres undefined) it is greater than 48.3 µg/mL. For the molecule `Cn1c(SCC(=O)NC2CCCC2)nnc1-c1ccncc1`, the solubility (kinetic) is greater than 47.6 µg/mL. `CC(=O)NCCc1nc2cc(NC(=O)c3cccs3)ccc2n1C` registered a kinetic solubility greater than 51.4 µg/mL. The figure for `Cn1cc(/C=N/NC(N)=S)c2ccccc21` is greater than 34.8 µg/mL; for `Cc1[nH]c2ccccc2c1SCC(=O)N1CCCCCC1` it is 25.8 µg/mL (≈ 85.3 µM); for `Cc1ccc2c(C)cc(=S)[nH]c2c1` it is 7.1 µg/mL (≈ 37.5 µM). The figure for `CCC(=O)N1CCc2cc(S(=O)(=O)N3CCCC3)ccc21` is 7.3 µg/mL (≈ 23.7 µM). The figure for `CCN=C1S/C(=C\c2cc(Cl)c(OC)c(OC)c2)C(=O)N1CC` is 0.8 µg/mL (≈ 2.25 µM); for `Cc1cc(C)nc(SCc2cn3c(C)cc(C)nc3n2)n1` it is greater than 44.9 µg/mL. As to `O=C(Nc1ccccc1N1CCCC1)c1ccc([N+](=O)[O-])o1`, the kinetic solubility turned out to be 44.9 µg/mL (≈ 149 µM). Take `CC(=O)N1CCN(CC(=O)Nc2ccccc2C(=O)Nc2ccccc2)CC1`: the solubility (kinetic) was greater than 57.1 µg/mL. The figure for `CCOC(=O)C1=C(C)NC(C)=C(C(=O)OCC)C1C(=O)OCC(=O)NC1CCCCC1` is greater than 65.5 µg/mL; for `Cc1ccc(NC(=O)CN2CCCC2c2cccn2C)cc1C` (centres undefined) it is 42.9 µg/mL (≈ 138 µM). `O=C(C1CCC1)N1CCN(S(=O)(=O)c2ccccc2)CC1` registered a solubility (kinetic) greater than 46.3 µg/mL. The figure for `N#C/C(=C\c1ccccc1)C(=O)Nc1cccnc1` is 18.3 µg/mL (≈ 73.4 µM). The figure for `O=C(Nc1cccc(Cl)c1N1CCOCC1)c1cccs1` is 1.6 µg/mL (≈ 4.96 µM); for `NS(=O)(=O)c1ccc(NC(=O)COC(=O)c2ncc(Cl)c(Cl)c2Cl)cc1` it is 54.7 µg/mL (≈ 125 µM); for `Cc1ccccc1NC(=O)c1cccc(C(=O)Nc2ccccc2C)n1` it is 0.3 µg/mL (≈ 0.869 µM).

Regarding `Cc1nc(C)c(-c2csc(Nc3ncccc3C)n2)s1`, the solubility (kinetic) is less than 0.2 µg/mL. The figure for `CCOC(=O)c1c(C)nsc1NC(=O)c1ccco1` is 1.6 µg/mL (≈ 5.71 µM). Turning to `COc1ccc(CN(C)CC(=O)Nc2ccccc2C(=O)NC2CC2)cc1F`, the kinetic solubility is 56 µg/mL (≈ 145 µM). Against the preceding molecule, the solubility kinetic is about 35-fold higher. The figure for `COc1ccc2nc(NC(=O)c3ccc([N+](=O)[O-])o3)sc2c1` is 2 µg/mL (≈ 6.26 µM); for `C=CCNC(=O)CC12CC3CC(C1)CC(CC(=O)NCC=C)(C3)C2` it is greater than 49.6 µg/mL; for `Cc1cccc(C(=S)N2CCOCC2)n1` it is greater than 33.3 µg/mL. Molecule `CCN(CC)CCNC(=O)c1cc2ccccc2nc1Cl` displayed a kinetic solubility of 31.2 µg/mL (≈ 102 µM). The figure for `O=C(OCC(=O)N1CCCCC1)c1ccc2ccccc2n1` is greater than 44.7 µg/mL; for `COc1cc2c(cc1OC)CC1(CCCCC1)N=C2.Cl` it is greater than 44.4 µg/mL; for `CC1CCC(C(C)C)C(OCC(O)CN2CCCC(C)C2)C1.Cl` (centres undefined) it is greater than 52.2 µg/mL. In turn, `CCc1cn([C@H]2C[C@H](O)[C@@H](CO)O2)c(=O)[nH]c1=O` gave a solubility (kinetic) greater than 38.4 µg/mL. Molecule `Nc1nc(-c2ccc3c(c2)CCCC3)c(CC(=O)O)s1` showed a kinetic solubility of 42.3 µg/mL (≈ 147 µM).

Take `CN1CCc2c(sc(/N=C/c3cc(C(C)(C)C)ccc3O)c2C#N)C1`: the solubility (kinetic) was determined as 3.4 µg/mL (≈ 9.62 µM). Compared with the last molecule, the solubility kinetic is about 12-fold lower. The figure for `O=C(NCCN1CCOCC1)Nc1ccc(F)cc1` is greater than 40.1 µg/mL; for `COc1ccccc1CNC(=O)c1ccncc1` it is greater than 36.3 µg/mL; for `Cc1ccccc1N1CCN(Cc2ccc3c(c2)OCO3)CC1` it is 21.5 µg/mL (≈ 69.3 µM).

`NS(=O)(=O)c1ccc(NC(=O)COC(=O)Cc2c[nH]c3ccccc23)cc1` displayed a kinetic solubility of 37.8 µg/mL (≈ 97.6 µM). Take `COc1cc(OC)cc(C(=O)NCC(=O)OC(C)C(=O)NC(C)C2CC3CCC2C3)c1` (centres undefined): the kinetic solubility was greater than 64.9 µg/mL. As to `Cc1cc(NC(=O)CSCC(=O)NC(C)c2ccccc2)no1` (centres undefined), the solubility (kinetic) was greater than 50 µg/mL. The figure for `CN(C)C(CNC(=O)c1c(F)cccc1Cl)c1ccco1` (centres undefined) is greater than 46.6 µg/mL; for `O=S(=O)(NC1CCCCC1)c1ccc(N2CCOCC2)nc1` it is greater than 48.8 µg/mL; for `Cc1ncc([N+](=O)[O-])n1CC(=O)Nc1ccc(F)cc1F` it is 34 µg/mL (≈ 115 µM). On to `N#Cc1c(/N=C/c2cccnc2)sc2c1CCCC2`, for which the kinetic solubility was determined as 7.5 µg/mL (≈ 28.1 µM). Compared with the last molecule, the solubility kinetic is about 4.5-fold lower.

As for `C/C(=N\NC1=NCCN1)c1ccc(N)c([N+](=O)[O-])c1`, the kinetic solubility was greater than 39.3 µg/mL. `COc1ccc(C2SCC(=O)N2Cc2ccccc2)cc1` (centres undefined): the solubility (kinetic) was determined as 44.6 µg/mL (≈ 149 µM). For `Cc1nc(NC(=O)COC(=O)c2ccc(CO)cc2)c(Cl)cc1Cl`, the solubility (kinetic) was 21.9 µg/mL (≈ 59.3 µM). The figure for `O=C(OCC(=O)N1CCc2ccccc2C1)c1ccc(F)cc1Cl` is 37.2 µg/mL (≈ 107 µM); for `COc1ccc(S(N)(=O)=O)cc1C(=O)OCC(=O)N1CCCC(C)C1` (centres undefined) it is greater than 55.6 µg/mL.
